Series [1] can be described thus: Inclusion ability of different concentrations and kinds of cyclodextrins for encapsulating API. How it is done:
Different kinds of cyclodextrins were dissolved with a pH 1.2 aqueous hydrochloric acid solution (0.1N) to determine the saturation concentration of each cyclodextrin.
(1) A certain amount of α-, β- and γ-cyclodextrin were weighed and added into a 10 mL volumetric flask, then added aqueous hydrochloric acid solution of pH 1.2 gradually until reaching the scale of the flask, shocked and performed ultrasound to dissolve the cyclodextrin. The maximum amount of cyclodextrin capable of being dissolved in a 10 mL solution was recorded.
(2) 8% α-cyclodextrin solution, 1% β-cyclodextrin solution, 20% γ-cyclodextrin solution, 20%, 30%, and 40% sulfobutyl ether-β-cyclodextrin solution and 20%, 30%, and 40% hydroxypropyl-β-cyclodextrin solution were formulated with hydrochloric acid aqueous solution of pH 1.2.
A certain amount of API was weighed and added into an appropriate volume of the cyclodextrin solution. If API was completely dissolved, the solution was filtered with a 0.45 μm PTFE filter membrane, and pH was slowly adjusted to 4.0 with a 5N NaOH aqueous solution and a 0.1N NaOH aqueous solution, observing during the pH adjusting procedure. If the solution becomes turbid when adjusting the pH, try to reduce the concentration of API. The clear solution after the pH adjustment was left to stand to observe the state of the solution after standing for 2 hours, 4 hours, and 24 hours.

Series [2] can be described thus: Formulation of drug-containing HP-β-CD solutions (concentration by HPLC, observation on standing). Particulars: 21 mg/ml added to 30% HP-β-CD solution pH 1.2, not completely dissolved, 0.45 μm PES filter.
Experimental: The drug was dissolved completely by ultrasound (ultrasonic frequency was 59 kHz).
4. pH adjustment: The pH of the drug solution was adjusted to about 6.0 with 5N NaOH aqueous solution and 0.1 N NaOH aqueous solution.

Consider `OC[C@H]1O[C@@H]2O[C@H]3[C@H](O)[C@@H](O)[C@@H](O[C@H]4[C@H](O)[C@@H](O)[C@@H](O[C@H]5[C@H](O)[C@@H](O)[C@@H](O[C@H]6[C@H](O)[C@@H](O)[C@@H](O[C@H]7[C@H](O)[C@@H](O)[C@@H](O[C@H]8[C@H](O)[C@@H](O)[C@@H](O[C@H]9[C@H](O)[C@@H](O)[C@@H](O[C@H]1[C@H](O)[C@H]2O)O[C@@H]9CO)O[C@@H]8CO)O[C@@H]7CO)O[C@@H]6CO)O[C@@H]5CO)O[C@@H]4CO)O[C@@H]3CO` [γ-cyclodextrin], for which the “maximum solubility in aqueous hydrochloric acid solution of pH 1.2” value (“maximum solubility” below) in series [1] (pH 1.2) is on record as “about 20%”. `OC[C@H]1O[C@@H]2O[C@H]3[C@H](O)[C@@H](O)[C@@H](O[C@H]4[C@H](O)[C@@H](O)[C@@H](O[C@H]5[C@H](O)[C@@H](O)[C@@H](O[C@H]6[C@H](O)[C@@H](O)[C@@H](O[C@H]7[C@H](O)[C@@H](O)[C@@H](O[C@H]1[C@H](O)[C@H]2O)O[C@@H]7CO)O[C@@H]6CO)O[C@@H]5CO)O[C@@H]4CO)O[C@@H]3CO` [α-cyclodextrin]: the “maximum solubility” value in series [1] (% (w/v), 10 mL) is “about 8%”.

For `O=C(Cc1ccc(-c2ccc(N3CCOCC3)cc2)cn1)NCc1cccc(F)c1.O=S(=O)(O)c1ccccc1` [KX2-361.benzene sulfonate], the “Solution phenomenon when pH is adjusted to 4” value in series [1] (API 0.5 mg/ml in 20% γ-CD (174:1)) is “turbid”. The “concentration after filtering, calibrated with HPLC” value in series [2] turned out to be 20660 µg/mL. As for `OC[C@H]1O[C@@H]2O[C@H]3[C@H](O)[C@@H](O)[C@@H](O[C@H]4[C@H](O)[C@@H](O)[C@@H](O[C@H]5[C@H](O)[C@@H](O)[C@@H](O[C@H]6[C@H](O)[C@@H](O)[C@@H](O[C@H]7[C@H](O)[C@@H](O)[C@@H](O[C@H]8[C@H](O)[C@@H](O)[C@@H](O[C@H]1[C@H](O)[C@H]2O)O[C@@H]8CO)O[C@@H]7CO)O[C@@H]6CO)O[C@@H]5CO)O[C@@H]4CO)O[C@@H]3CO` [β-cyclodextrin], the “maximum solubility” value in series [1] (pH 1.2) is on record as “about 1%”.

The values are drawn from patent US11071737B2, “Drug inclusion complex, preparation thereof, and preparation method thereof” (priority 2015, dated 2021).
